One assay deals with A549. As to the kind of experiment: Cell-based assay, anti-proliferative activity (Cell Counting Kit-8, 72 hours). Conditions: Homo sapiens, read-out: IC50 (μM) A549. An outline of the steps:
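After compound exposure of cells in 96-well plates, growth was measured colorimetrically and converted into IC50 values.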

The test system of the next assay is CCD-18Co. Described as above. The conditions noted are these: Homo sapiens, read-out: IC50 (μM) CCD-18Co. An outline of the steps: (§1)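 Anti-proliferative IC50 obtained from 96-well cultures treated 72 h with inhibitor at 0–100 micro-M, growth assessed by a CCK-8 colorimetric readout.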
The next assay concerns HCT-116. The description is as above. Conditions: Homo sapiens, read-out: IC50 (μM) HCT-116. An outline of the steps:
as §1

In the next assay the test system is HFL1. The description is as above. Conditions: Homo sapiens, read-out: IC50 (μM) HFL1. An outline of the steps: as §1
The next assay deals with PC14. Described as above. Conditions: Homo sapiens, read-out: IC50 (μM) PC14. The gist of the method:
as §1

The target of the next assay is SUV39H2 (Homo sapiens (Human), UniProt Q9H5I1). The conditions noted are these: read-out: IC50 (μM) Suv 39H2 assay.
Setting [1] is: A549 cells, 72 hours, Cell Counting Kit-8.
The mark [2] stands for this setting: CCD-18Co cells, 72 hours, Cell Counting Kit-8.
[3] abbreviates: HCT-116 cells, 72 hours, Cell Counting Kit-8.
Where [4] appears, read: HFL1 cells, 72 hours, Cell Counting Kit-8.
The mark [5] stands for this setting: PC-14, PC14 cells, 72 hours, Cell Counting Kit-8.
The mark [6] stands for this setting: A549 cells, Cell Counting Kit-8, 72 hours.
Where [7] appears, read: CCD-18Co cells, Cell Counting Kit-8, 72 hours.
Where [8] appears, read: HCT-116 cells, Cell Counting Kit-8, 72 hours.
[9] abbreviates: HFL1 cells, Cell Counting Kit-8, 72 hours.

Structures can show the parent of a compound that is named as a salt. Where two headings read alike, the source gives them in different places.

Chain of SUV39H2 (Q9H5I1 whole entry): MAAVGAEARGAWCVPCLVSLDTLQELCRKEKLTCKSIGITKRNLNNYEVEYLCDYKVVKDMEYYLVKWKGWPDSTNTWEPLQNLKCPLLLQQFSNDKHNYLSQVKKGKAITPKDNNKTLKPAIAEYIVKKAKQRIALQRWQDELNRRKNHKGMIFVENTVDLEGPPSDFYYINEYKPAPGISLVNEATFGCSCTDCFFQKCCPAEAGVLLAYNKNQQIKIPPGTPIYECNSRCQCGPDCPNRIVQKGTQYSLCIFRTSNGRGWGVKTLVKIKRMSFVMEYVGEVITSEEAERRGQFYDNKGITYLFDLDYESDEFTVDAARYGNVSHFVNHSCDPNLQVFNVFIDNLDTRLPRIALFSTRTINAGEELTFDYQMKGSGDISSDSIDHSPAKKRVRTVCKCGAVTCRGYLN

On to `COc1cc(OC)c(-c2cn3ccc(N[C@H]4CC[C@H](NCc5ccccc5)CC4)cc3n2)cc1Cl` [Example 291, N^1-benzyl-N^4-(2-(5-chloro-2,4-dimethoxyphenyl)imidazo[1,2-a]pyridin-7-yl)-trans-cyclohexane-1,4-diamine], for which the IC50 in the assay with A549 (setting [1]) came out at 0.72 µM; with CCD-18Co (setting [2]) it was 0.76 µM; in the assay on HCT-116 (setting [3]) it was 0.67 µM; in the assay on HFL1 (setting [4]), 0.93 µM; in the assay with PC14 (setting [5]) it was 0.71 µM; on SUV39H2 (enzyme assay), 0.041 µM.

For `COc1cc(OC)c(-c2cn3ccc(N4CCCC4)nc3n2)cc1Br` [Example 3, 2-(5-bromo-2,4-dimethoxyphenyl)-7-(pyrrolidin-1-yl)imidazo[1,2-a]pyrimidine], the IC50 in the assay with A549 (setting [6]) was 11 µM; with CCD-18Co (setting [7]), 6.8 µM; with HCT-116 (setting [8]), 8.1 µM; in the assay with HFL1 (setting [9]), 7.4 µM; in the assay with PC14 (PC-14, PC14 cells, Cell Counting Kit-8, 72 hours), 7.1 µM; at SUV39H2 (enzyme assay), 0.00858 µM.

Consider `COc1cc(OC)c(-c2cn3ccc(N4CCN(c5cccnc5)CC4)cc3n2)cc1Cl` [Example 296, 2-(5-chloro-2,4-dimethoxyphenyl)-7-(4-(pyridin-3-yl)piperazin-1-yl)imidazo[1,2-a]pyridine], for which the IC50 in the assay on A549 (setting [1]) was found to be 0.66 µM; with CCD-18Co (setting [2]) it was 0.79 µM; in the assay with HCT-116 (setting [3]), 0.56 µM; in the assay on HFL1 (setting [4]), 0.73 µM; in the assay with PC14 (setting [5]), 0.64 µM; on SUV39H2 (enzyme assay) it was 0.013 µM.

Consider `COc1cc(OC)c(-c2cn3ccc(-c4ccc(C(=O)N5CCC(N)CC5)cc4)cc3n2)cc1Cl` [Example 259, (4-aminopiperidin-1-yl)(4-(2-(5-chloro-2,4-dimethoxyphenyl)imidazo[1,2-a]pyridin-7-yl)phenyl)methanone], for which the IC50 with A549 (setting [1]) was found to be 10 µM; in the assay with CCD-18Co (setting [2]), 10 µM; in the assay on HCT-116 (setting [3]), 7.3 µM; with HFL1 (setting [4]), 8.6 µM; in the assay with PC14 (setting [5]) it was 7.9 µM; on SUV39H2 (enzyme assay), 0.0586 µM.

`CNCC(=O)Nc1ccc(-c2ccn3cc(-c4cc(Cl)c(OC)cc4OC)nc3c2)cc1` [Example 273, N-(4-(2-(5-chloro-2,4-dimethoxyphenyl)imidazo[1,2-a]pyridin-7-yl)phenyl)-2-(methylamino)acetamide hydrochloride]: the IC50 in the assay on A549 (A549, 72 h) came out at 1.5 µM; in the assay with CCD-18Co (CCD-18Co, 72 h), 1.1 µM; in the assay with HCT-116 (HCT-116, 72 h) it was 0.86 µM; in the assay with HFL1 (HFL1, 72 h), 1.2 µM; in the assay on PC14 (PC-14, 72 h), 1.1 µM.

Turning to `COc1cc(OC)c(-c2cn3ccc(-c4ccc(C(=O)[C@H](C)N)cc4)cc3n2)cc1Cl` [Example 274, (S)-2-amino-1-(4-(2-(5-chloro-2,4-dimethoxyphenyl)imidazo[1,2-a]-pyridin-7-yl)phenyl)propan-1-one hydrochloride], the IC50 was 1.2 µM with A549 (A549, 72 h); 1.5 µM with CCD-18Co (setting [2]); 1.6 µM in the assay with HCT-116 (setting [3]); 1.4 µM with HFL1 (setting [4]); 0.74 µM in the assay with PC14 (setting [5]).

Turning to `COc1cc(OC)c(-c2cn3ccc(N4CC[C@H](NCc5ccncc5)C4)cc3n2)cc1Cl` [Example 298, (S)-1-(2-(5-chloro-2,4-dimethoxyphenyl)imidazo[1,2-a]pyridin-7-yl)-N-(pyridin-4-ylmethyl)pyrrolidin-3-amine trihydrochloride], the concentration for half-maximal inhibition (IC50) with A549 (setting [1]) came to 0.67 µM; in the assay on CCD-18Co (setting [2]), 1.4 µM; with HCT-116 (setting [3]), 0.5 µM; in the assay with HFL1 (setting [4]), 0.84 µM; in the assay on PC14 (setting [5]) it was 0.79 µM.

On to `COc1cc(OC)c(-c2cn3ccc(NC(=O)C(N)CCCCN)cc3n2)cc1Cl` (stereo in doubt) [Example 247, (S)-2,6-diamino-N-(2-(5-chloro-2,4-dimethoxyphenyl)imidazo[1,2-a]-pyridin-7-yl)hexanamide], for which the IC50 with A549 (setting [1]) stood at 10 µM; with CCD-18Co (setting [2]), 10 µM; in the assay with HCT-116 (setting [3]) it was 10 µM; in the assay on HFL1 (setting [4]), 10 µM; with PC14 (setting [5]), 5.7 µM.

Turning to `COc1ccc(-c2cn3ccc(N4CCCC4)cc3n2)cc1C#N` [Example 21, 2-methoxy-5-(7-(pyrrolidin-1-yl)imidazo[1,2-a]pyridin-2-yl)benzonitrile hydrobromide], the IC50 in the assay on A549 (setting [6]) is 4.2 µM; in the assay on CCD-18Co (setting [7]) it was 5.5 µM; with HCT-116 (setting [8]), 3.1 µM; in the assay with HFL1 (setting [9]), 2.5 µM; on SUV39H2 (enzyme assay), 0.0733 µM.

On to `COc1cc(OC)c(-c2cn3cc(N4CCC(N)CC4)ccc3n2)cc1Cl` [Example 121, 1-(2-(5-chloro-2,4-dimethoxyphenyl)imidazo[1,2-a]pyridin-6-yl)piperidin-4-amine], for which the IC50 with A549 (setting [6]) came out at 8.1 µM; in the assay with CCD-18Co (setting [7]) it was 6.8 µM; with HCT-116 (setting [8]) it was 18 µM; in the assay with HFL1 (setting [9]), 6.8 µM; at SUV39H2 (enzyme assay), 0.0514 µM.

As to `COc1cc(OC)c(-c2cn3ccc(N4CCN(CCO)CC4)nc3n2)cc1Cl` [Example 45, 2-(4-(2-(5-chloro-2,4-dimethoxyphenyl)imidazo[1,2-a]pyrimidin-7-yl)-piperazin-1-yl)ethanol], the IC50 in the assay with A549 (setting [6]) was 18 µM; in the assay on CCD-18Co (setting [7]) it was 21 µM; in the assay with HCT-116 (setting [8]), 12 µM; with HFL1 (setting [9]) it was 17 µM; at SUV39H2 (enzyme assay) it was 0.0365 µM.

As for `COc1cc(OC)c(-c2cn3ccc(NCCN)cc3n2)cc1Cl` [Example 10, N^1-(2-(5-chloro-2,4-dimethoxyphenyl)imidazo[1,2-a]pyridin-7-yl)ethane-1,2-diamine dihydrochloride], the IC50 in the assay on A549 (A549, 72 h) worked out at 6.8 µM; in the assay on CCD-18Co (CCD-18Co, 72 h), 7.1 µM; in the assay with HCT-116 (HCT-116, 72 h) it was 4.2 µM; with HFL1 (HFL1, 72 h), 3.7 µM; at SUV39H2, 0.015 µM.

Regarding `COc1cc(OC(C)C)c(-c2cn3ccc(N4CCCC4)cc3n2)cc1Br` [Example 53, hydrobromide], the IC50 in the assay on A549 (setting [6]) was determined as 2.5 µM; in the assay on CCD-18Co (setting [7]), 2.1 µM; in the assay with HCT-116 (setting [8]), 2.4 µM; in the assay on HFL1 (setting [9]) it was 1.9 µM; on SUV39H2 (enzyme assay), 0.0181 µM.

As to `COc1cc(OC)c(-c2cn3ccc(N4CCC(N(C)C)CC4)cc3n2)cc1Cl` [Example 92, 1-(2-(5-chloro-2,4-dimethoxyphenyl)imidazo[1,2-a]pyridin-7-yl)-N,N-dimethylpiperidin-4-amine], the IC50 in the assay on A549 (setting [6]) is 6 µM; in the assay on CCD-18Co (setting [7]), 8.8 µM; with HCT-116 (setting [8]) it was 7 µM; in the assay with HFL1 (setting [9]), 5.5 µM; at SUV39H2 (enzyme assay), 0.0135 µM.

On to `COCCCN1CC=C(c2ccn3cc(-c4cc(Cl)c(OC)cc4OC)nc3c2)CC1` [Example 116, 2-(5-Chloro-2,4-dimethoxyphenyl)-7-(1-(3-methoxypropyl)-1,2,3,6-tetrahydropyridin-4-yl)imidazo[1,2-a]pyridine], for which the IC50 in the assay with A549 (setting [6]) came to 6.1 µM; with CCD-18Co (setting [7]), 11 µM; in the assay on HCT-116 (setting [8]) it was 7 µM; in the assay on HFL1 (setting [9]) it was 6.6 µM; at SUV39H2 (enzyme assay) it was 0.0738 µM.

Take `COc1cc(OC)c(-c2cn3ccc(C4=CCN(CCF)CC4)cc3n2)cc1Cl` [Example 113, 2-(5-chloro-2,4-dimethoxyphenyl)-7-(1-(2-fluoroethyl)-1,2,3,6-tetrahydropyridin-4-yl)imidazo[1,2-a]pyridine]: the IC50 in the assay on A549 (setting [6]) was 6.7 µM; with CCD-18Co (setting [7]) it was 7.6 µM; in the assay with HCT-116 (setting [8]) it was 6.7 µM; in the assay with HFL1 (setting [9]), 5.2 µM; on SUV39H2 (enzyme assay) it was 0.0571 µM.

Consider `COc1cc(OC)c(-c2cn3cc(NCCN)ccc3n2)cc1Cl` [Example 81, N^1-(2-(5-chloro-2,4-dimethoxyphenyl)imidazo[1,2-a]pyridin-6-yl)ethane-1,2-diamine], for which the concentration for half-maximal inhibition (IC50) in the assay on A549 (setting [6]) amounted to 13 µM; in the assay on CCD-18Co (setting [7]) it was 11 µM; in the assay with HCT-116 (setting [8]), 11 µM; in the assay with HFL1 (setting [9]), 5.6 µM; on SUV39H2 (enzyme assay), 0.0179 µM.

The values are drawn from patent US10508109B2 (priority 2015, dated 2019).
